Consider seven compounds from US10551384B2, “MTOR kinase mutations and methods of use thereof” (RUTGERS, THE STATE UNIVERSITY OF NEW JERSEY, priority 2016, dated 2020).

Structures are written as SMILES. “Also recorded” adds a separate entry of the source. Where two headings read alike, the source gives them in different places.

For assay [1], the target named is T1, tor2-dg cells expressing TOR2-mTOR (UniProt P32600+P42345, A1929L/A1944S/A1986S/A2056E/A2073S/C1999R/C2085L/C2133A/D1912T/D1918E/D1933G/D1947H/D2096N/DUP2140-2140/E1921Q/E2000I/E2014H/E2032D/E2033D/E2049A/E2059K/E2080D/G1897S/G1954S/G2046K/G2092K/H1915G/H1958L/H1988Q/H2028Y/H2055Y/H2106N/I1939L/I1957L/I1964L/I1973V/I2021V/K1928N/K1993S/K1996E/K2045E/K2066R/K2087N/K2095S/L1923M/L1952I/L1956S/L1995I/L2037Q/L2103I/M2010E/M2011L/M2026Q/M2058L/M2079N/M2089K/M2132S/N1898S/N1899S/N1920T/N1989K/N1992L/N1997K/N2003P/N2071Q/N2093D/P1951Q/Q1937E/Q1959S/Q2007D/Q2063E/Q2072N/Q2082Y/R1890H/R1896E/R1950N/R1966K/R2042H/R2086M/R2110K/R2134H/S1980I/S2112G/S2120T/T1903A/T1948Q/T1962S/T1977M/T1983E/T1984S/T1985L/T2004V/T2068I/T2098N/T2119Q/V1906L/V1919A/V1924H/V1927F/V2019M/V2044T/V2050A/W1916I/Y1913F/Y1967A/Y2038F/Y2074F/Y2125H).
T1 construct: fused in frame with mTOR kinase domain (2140-2549 aa); yeast TOR2 N-terminus (1-2080 aa); expressed in transfected cells; host or cells: S. cerevisiae W303 tor2-dg, centromeric plasmid derived from pML40-TOR2
T1 sequence (P32600+P42345 fused with the stated changes): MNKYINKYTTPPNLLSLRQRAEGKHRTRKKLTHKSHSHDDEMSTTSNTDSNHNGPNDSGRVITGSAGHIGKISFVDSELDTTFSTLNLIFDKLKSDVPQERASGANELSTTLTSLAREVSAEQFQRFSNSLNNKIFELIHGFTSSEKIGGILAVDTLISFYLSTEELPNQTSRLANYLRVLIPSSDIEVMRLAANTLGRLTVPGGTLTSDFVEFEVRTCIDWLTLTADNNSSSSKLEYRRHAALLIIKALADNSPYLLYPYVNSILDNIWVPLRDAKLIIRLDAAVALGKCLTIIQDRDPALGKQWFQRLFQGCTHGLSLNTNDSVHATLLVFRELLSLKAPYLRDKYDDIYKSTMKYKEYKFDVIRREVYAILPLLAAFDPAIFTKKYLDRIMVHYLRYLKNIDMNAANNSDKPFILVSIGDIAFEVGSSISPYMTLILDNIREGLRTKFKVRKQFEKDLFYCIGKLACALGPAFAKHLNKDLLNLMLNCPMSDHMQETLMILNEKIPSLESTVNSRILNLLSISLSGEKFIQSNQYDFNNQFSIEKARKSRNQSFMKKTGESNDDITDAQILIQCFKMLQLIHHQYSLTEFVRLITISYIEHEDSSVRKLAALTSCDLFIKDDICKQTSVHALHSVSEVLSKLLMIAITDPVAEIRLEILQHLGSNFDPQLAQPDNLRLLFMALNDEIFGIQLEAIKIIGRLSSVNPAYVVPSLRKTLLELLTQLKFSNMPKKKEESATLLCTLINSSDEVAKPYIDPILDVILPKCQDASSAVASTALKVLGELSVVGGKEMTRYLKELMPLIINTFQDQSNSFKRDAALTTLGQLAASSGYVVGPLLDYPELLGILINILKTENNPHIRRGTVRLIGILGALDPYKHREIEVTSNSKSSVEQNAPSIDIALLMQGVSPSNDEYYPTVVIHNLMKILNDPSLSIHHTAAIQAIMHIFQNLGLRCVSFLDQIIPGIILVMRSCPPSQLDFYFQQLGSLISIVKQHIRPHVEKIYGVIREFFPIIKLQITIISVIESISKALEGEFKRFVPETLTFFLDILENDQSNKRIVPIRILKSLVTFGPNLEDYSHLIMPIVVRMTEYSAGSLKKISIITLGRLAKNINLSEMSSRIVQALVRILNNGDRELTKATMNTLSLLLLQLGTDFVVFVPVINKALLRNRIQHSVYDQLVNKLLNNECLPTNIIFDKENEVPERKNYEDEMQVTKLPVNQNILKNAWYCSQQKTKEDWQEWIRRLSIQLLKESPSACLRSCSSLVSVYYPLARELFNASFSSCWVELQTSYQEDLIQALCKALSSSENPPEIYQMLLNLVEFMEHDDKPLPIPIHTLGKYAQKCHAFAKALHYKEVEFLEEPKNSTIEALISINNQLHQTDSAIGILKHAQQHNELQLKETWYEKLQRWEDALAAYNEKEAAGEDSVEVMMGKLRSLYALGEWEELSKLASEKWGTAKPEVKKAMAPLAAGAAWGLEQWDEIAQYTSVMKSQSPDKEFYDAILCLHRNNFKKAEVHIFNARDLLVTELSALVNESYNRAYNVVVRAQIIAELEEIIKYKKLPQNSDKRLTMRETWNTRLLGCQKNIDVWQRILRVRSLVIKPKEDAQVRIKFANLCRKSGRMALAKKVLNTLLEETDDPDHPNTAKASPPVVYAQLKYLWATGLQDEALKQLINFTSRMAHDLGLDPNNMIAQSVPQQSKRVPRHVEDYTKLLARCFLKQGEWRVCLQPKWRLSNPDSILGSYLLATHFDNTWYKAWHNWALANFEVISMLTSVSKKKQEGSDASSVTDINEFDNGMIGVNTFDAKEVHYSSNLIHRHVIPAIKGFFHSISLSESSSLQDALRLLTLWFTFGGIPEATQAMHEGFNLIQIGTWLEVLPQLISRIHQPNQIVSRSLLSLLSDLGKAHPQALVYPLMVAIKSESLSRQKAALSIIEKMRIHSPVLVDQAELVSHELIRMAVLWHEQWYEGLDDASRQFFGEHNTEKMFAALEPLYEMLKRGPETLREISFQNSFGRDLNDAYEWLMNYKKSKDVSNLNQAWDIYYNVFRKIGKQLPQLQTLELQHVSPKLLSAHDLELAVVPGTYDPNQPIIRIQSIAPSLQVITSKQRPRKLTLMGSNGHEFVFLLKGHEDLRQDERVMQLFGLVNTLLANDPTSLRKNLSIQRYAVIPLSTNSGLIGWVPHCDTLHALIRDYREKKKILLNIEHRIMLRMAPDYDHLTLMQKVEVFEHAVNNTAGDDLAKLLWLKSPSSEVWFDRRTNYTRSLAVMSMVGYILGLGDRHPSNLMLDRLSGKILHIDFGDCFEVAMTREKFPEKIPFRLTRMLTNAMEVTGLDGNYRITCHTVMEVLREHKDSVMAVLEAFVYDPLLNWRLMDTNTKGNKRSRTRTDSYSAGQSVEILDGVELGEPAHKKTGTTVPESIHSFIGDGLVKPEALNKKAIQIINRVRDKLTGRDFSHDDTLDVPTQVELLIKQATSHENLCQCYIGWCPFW
T1 sequence (P41318 whole entry partner, the tested form may be a part): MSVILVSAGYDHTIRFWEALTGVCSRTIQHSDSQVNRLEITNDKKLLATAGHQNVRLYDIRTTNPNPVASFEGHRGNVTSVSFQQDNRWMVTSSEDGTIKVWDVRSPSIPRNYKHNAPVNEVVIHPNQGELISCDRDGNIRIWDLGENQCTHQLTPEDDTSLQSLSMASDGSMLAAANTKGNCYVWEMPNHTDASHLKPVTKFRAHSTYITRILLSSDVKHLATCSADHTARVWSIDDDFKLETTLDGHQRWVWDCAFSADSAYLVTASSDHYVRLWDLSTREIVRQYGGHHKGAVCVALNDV
Nature of the assay: Disc halo assay of tor2-dg cells expressing TOR2-mTOR, with or without antifungal permeability enhancers. The class given is cell-based, S. cerevisiae. The settings on record: filter discs supplemented with amphotericin B (10 μM), miconazole (50 μM) or caspofungin (50 μM); 37° C., 3 day. The procedure:
FIGS. 2A-C. Enhancement of yeast cell permeability to structurally diverse mTOR kinase inhibitors by amphotericin B. (FIG. 2A) tor2-dg cells expressing TOR2-mTOR were spread on synthetic complete (SC)-leucine plate and tested for drug sensitivity by disc halo assay using filter discs containing different mTOR kinase inhibitors supplemented with the drug carrier DMSO or amphotericin B (10 μM). (FIG. 2B) Similar to FIG. 2A except the filter discs were supplemented with miconazole (50 μM). (FIG. 2C) Similar to FIG. 2A except the filter discs were supplemented with caspofungin (50 μM).
(§1) To enhance yeast cell permeability, log phase W303 tort-dg cells were spread evenly on SD-Leu agarose plates. After drying, small sterile filter discs were placed on the surface and 5 μl of indicated mTOR inhibitors or DMSO were applied to each disc with or without adding 5 μl of amphotericin B (10 μM), miconazole (50 μM) or caspofungin (50 μM). Plates were incubated at 37° C. for 3 day. Drug resistance profiles of TOR2-mTOR mutant cells were determined by the spotting assay. For this assay, 10-fold serial dilutions of cells were spotted on SD-leu plates in the presence of indicated mTOR inhibitors with or without amphotericin B (200 nM) and incubated at 37° C. for 3 day.

The next assay has as its system TOR2-mTOR L2185A mutant. Nature of the assay: Yeast spotting assay for drug resistance, TOR2-mTOR L2185A. The class given is cell-based, S. cerevisiae.
Excerpt: (§2) FIGS. 4A-C. […] (FIG. 4A) Scheme of a yeast-based screen for drug-resistant mutations in mTOR kinase domain. mTOR kinase domain is amplified by error-prone PCR to generate randomized mutations, which is then recombined in frame into the TOR2-mTOR plasmid by gap-repair in tort-dg cells, and is selected on SC-leucine minus plates. Replica plating is then made onto SC-leucine plates containing DMSO or mTOR kinase inhibitor for selection of drug resistant clones. (FIG. 4B) tor2-dg cells expressing WT or mutant TOR2-mTOR were serially diluted by 10-fold and assayed for sensitivity to different mTOR kinase inhibitors in the presence of amphotericin B. Vector and TOR2 were used as controls. Drug resistant assay was performed at 37° C. in the presence of amphotericin B (except OSI-027). (FIG. 4C) Systematic mutational analysis of L2185 on drug resistance. tort-dg cells expressing WT or mutant TOR2-mTOR carrying all possible mutations at L2185 were serially diluted by 10-fold and tested for sensitivity to different mTOR kinase inhibitors at 37° C.
as §1

In a further assay the test system is TOR2-mTOR L2185C mutant. In words: Yeast spotting assay for drug resistance, TOR2-mTOR L2185C. It is filed as cell-based, S. cerevisiae.
Excerpt: as §2, §1

A further assay has as its system TOR2-mTOR L2185N mutant. In words: Yeast spotting assay for drug resistance, TOR2-mTOR L2185N. It is filed as cell-based, S. cerevisiae. The following applies: 37° C., with amphotericin B.
Excerpt: as §2, §1

The subject of assay [2] is SW480 colorectal cancer cells carrying L2185A mutant mTOR alleles. Nature of the assay: SRB growth assay of SW480 cells carrying L2185A mutant mTOR. The settings on record: various concentrations, 2 day. The class given is cell-based, human. The method, then: (§3) (FIG. 5A) SW480 cells carrying homozygous WT mTOR or L2185A mutant alleles were treated with various concentrations of AZD8055, INK-128, OSI-027 and PP242 for 2 day. Growth of SW480 cells was measured by SRB assay. Data represent means±SD in three independent experiments. (FIG. 5B) SW480 cells carrying homozygous WT and L2185A mutant mTOR allele were treated with a single dose of AZD8055 (100 nM), INK-128 (100 nM), OSI-027 (6,000 nM), and PP242 (2,000 nM) for different times. Cell growth was measured by SRB assay. The drug carrier DMSO was used as a control. Data represent means±SD in three independent experiments. (FIG. 5C) SW480 cells carrying homozygous WT and L2185A mutant mTOR were treated with various concentrations of INK-128, OSI-027, AZD8055 and PP242 for 1 hr. The effect on the level of P-S6K, S6K, P-4E-BP1, 4EB-P1, P-AKT and AKT was analyzed by immunoblot. […] The growth of SW480 cells was measured by SRB assay. Data represent means±SD in three independent experiments.
Cancer cell lines were maintained in DMEM or RPMI 1640, supplemented with 10% fetal bovine serum (Invitrogen) and 1% penicillin/streptomycin (Invitrogen). CRISPR/cas9 technology was used to engineer mutant mTOR allele in SW480 colorectal and H460 lung cancer cells. Briefly, The target sequence for mTOR, […] (SEQ ID NO: 3 was designed through the online tool at crispr.mit.edu, and cloned into pSPCas9(BB)-2A-GFP vector (PX458 in Addgene). Genomic mTOR mutation was engineered using a protocol as described (Ran, et al. (2013). Nature protocols 8, 2281-2308) and was confirmed by targeted sequencing.
(§4) Antibodies against tubulin, S6K, phospho-S6K (Thr389), 4E-BP1, phospho-4E-BP1 (Thr37/46), Akt, phospho-Akt (Thr308), and phospho-Akt (Ser473) were purchased from Cell Signaling Technology. […] For drug sensitivity test, cancer cells were seeded in 96-well plates at a density of 2,000 cells per well. 24 hours later, different concentrations of mTOR inhibitors were added in quadruplicate. Cell growth was measured by the sulforhodamine B (SRB) assay as previously described (Vichai, V., and Kirtikara, K. (2006). Nature protocols 1, 1112-1116).
In general terms: In SRB staining, fixed cells bind dye roughly in proportion to their protein.

Another assay concerns TOR2-mTOR L2185D mutant. In words: Yeast spotting assay for drug resistance, TOR2-mTOR L2185D. The settings on record: 37° C., with amphotericin B. The class given is cell-based, S. cerevisiae.
Excerpt: as §2, §1

The test system of a further assay is TOR2-mTOR L2185G mutant. In words: Yeast spotting assay for drug resistance, TOR2-mTOR L2185G. The class given is cell-based, S. cerevisiae. The settings on record: 37° C., with amphotericin B.
Excerpt: as §2, §1

Assay [3] has as its system mTORC1 and mTORC2 signaling in SW480 mTOR(L2185A) cells. In words: mTORC1/mTORC2 signaling immunoblot in SW480 cells carrying L2185A mutant mTOR. The following applies: various concentrations, 1 hr, immunoblot of P-S6K, P-4E-BP1, P-AKT. It is filed as cell-based, human. The method, then: as §3, §4
In general terms: Immunoblotting shows a protein as a band on a membrane.

Where [4] appears, read: 37° C., amphotericin B present (except OSI-027).

As for `CC[C@H](C)C[C@H](C)CCCCCCCCC(=O)N[C@H]1C[C@@H](O)[C@@H](NCCN)NC(=O)[C@@H]2[C@@H](O)CCN2C(=O)[C@H]([C@H](O)CCN)NC(=O)[C@H]([C@H](O)[C@@H](O)c2ccc(O)cc2)NC(=O)[C@@H]2C[C@@H](O)CN2C(=O)[C@H]([C@@H](C)O)NC1=O` [caspofungin], in assay [1], the “effect of antifungal drug on yeast sensitivity to mTOR kinase inhibitors” value (“effect … to mTOR kinase inhibitors” below) was “fail to do so”.
For the compound `COc1ccc(-c2ccc3c(N4CCOC[C@@H]4C)nc(N4CCOC[C@@H]4C)nc3n2)cc1CO` [AZD8055], the “drug resistance/sensitivity of TOR2-mTOR L2185A mutant yeast” value in the assay on TOR2-mTOR L2185A mutant (setting [4]) was “confer resistance; also recorded: conferring resistance”. The “drug resistance/sensitivity of TOR2-mTOR L2185C mutant yeast” value in the assay on TOR2-mTOR L2185C mutant (setting [4]) is “confer resistance; also recorded: conferring resistance”. Besides, the “drug resistance of TOR2-mTOR L2185N mutant yeast” value with TOR2-mTOR L2185N mutant is “moderately resistant”. Besides, the “drug resistance/sensitivity of cell growth, SW480 L2185A vs WT” value (from here on “drug resistance/sensitivity … vs WT”) in assay [2] is “confers resistance”. Moreover, the “drug resistance of TOR2-mTOR L2185D mutant yeast” value in the assay with TOR2-mTOR L2185D mutant is given as “moderately resistant”. Also, the “drug resistance of TOR2-mTOR L2185G mutant yeast” value in the assay on TOR2-mTOR L2185G mutant is “moderately resistant”. Further, in assay [3], the “drug resistance of mTORC1 and mTORC2 signaling, SW480 L2185A vs WT” value is “drug-resistant signaling by both mTORC1 and mTORC2”.
Consider `CC(C)n1nc(-c2cc3cc(O)ccc3[nH]2)c2c(N)ncnc21` [PP242], for which the “drug resistance/sensitivity … vs WT” value in assay [2] is “confers resistance”. Also, the “drug resistance of mTORC1 and mTORC2 signaling, SW480 L2185A vs WT” value in assay [3] is “drug-resistant signaling by both mTORC1 and mTORC2”.
Turning to `CN(C)C1CCN(C(=O)c2ccc(NC(=O)Nc3ccc(-c4nc(N5CCOCC5)nc(N5CCOCC5)n4)cc3)cc2)CC1` [PKI-587], the “drug resistance/sensitivity of TOR2-mTOR L2185A mutant yeast” value in the assay with TOR2-mTOR L2185A mutant is “conferring resistance”. Also, the “drug resistance/sensitivity of TOR2-mTOR L2185C mutant yeast” value in the assay on TOR2-mTOR L2185C mutant is “conferring resistance”. Also, the “drug resistance of TOR2-mTOR L2185N mutant yeast” value in the assay on TOR2-mTOR L2185N mutant was “moderately resistant”. Moreover, the “drug resistance of TOR2-mTOR L2185D mutant yeast” value in the assay on TOR2-mTOR L2185D mutant is recorded as “moderately resistant”. In addition, the “drug resistance of TOR2-mTOR L2185G mutant yeast” value with TOR2-mTOR L2185G mutant was “moderately resistant”.
As to `Clc1ccc(COC(Cn2ccnc2)c2ccc(Cl)cc2Cl)c(Cl)c1` (centres unmarked) [miconazole], the “effect … to mTOR kinase inhibitors” value in assay [1] is recorded as “fail to do so”.
Regarding `C[C@@H]1[C@H](O)[C@@H](C)/C=C/C=C/C=C/C=C/C=C/C=C/C=C/[C@H](O[C@@H]2O[C@H](C)[C@@H](O)[C@H](N)[C@@H]2O)C[C@@H]2O[C@](O)(C[C@@H](O)C[C@@H](O)[C@H](O)CC[C@@H](O)C[C@@H](O)CC(=O)O[C@H]1C)C[C@H](O)[C@H]2C(=O)O` [Amphotericin B], the “effect … to mTOR kinase inhibitors” value in assay [1] was “increases yeast sensitivity to most of mTOR kinase inhibitors”.
Take `COc1ccc(-c2cc3c(C)nc(N)nc3n([C@H]3CC[C@H](OCCO)CC3)c2=O)cn1` [PF-04691502]: the “drug resistance/sensitivity of TOR2-mTOR L2185A mutant yeast” value in the assay with TOR2-mTOR L2185A mutant (setting [4]) was “confers resistance; also recorded: conferring resistance”. In addition, in the assay on TOR2-mTOR L2185C mutant (setting [4]), the “drug resistance/sensitivity of TOR2-mTOR L2185C mutant yeast” value is on record as “confer resistance; also recorded: conferring resistance”. Further, the “drug resistance of TOR2-mTOR L2185N mutant yeast” value with TOR2-mTOR L2185N mutant is “moderately resistant”. Moreover, in assay [2], the “drug resistance/sensitivity … vs WT” value was “still sensitive”. The “drug resistance of TOR2-mTOR L2185D mutant yeast” value in the assay on TOR2-mTOR L2185D mutant is given as “moderately resistant”. In addition, the “drug resistance of TOR2-mTOR L2185G mutant yeast” value in the assay with TOR2-mTOR L2185G mutant was “moderately resistant”.
